As usually defined, the pIC50 is the IC50 on a negative log10 scale, so that one unit is a factor of ten. The pEC50 is the negative decadic logarithm of the EC50, by convention in mol/L.

This is an account of results in article PMC3578765 (PLoS Neglected Tropical Diseases, 2013).

Data set [1] concerns BR DEN2 01-01 infection of Huh-7.5. As to the kind of experiment: assay validation with reference compounds, 10-pt DRC of percent infection. Type of data set: cell-based, Dengue virus. As to conditions: percent infection normalized against DENV2-infected Huh-7.5, M.O.I. 0.5, read-out: IC50. As for the experimental part: (§1) An immunofluorescence assay (IFA) used to detect dengue infection was optimized for the dengue HT/HCA. Briefly, cells were fixed with 4% (w/v) paraformaldehyde (PFA) for 20 min at room temperature (Rm T). PFA-fixed cells were treated with 0.25% (v/v) Triton-X for 20 min at Rm T. DENV-infected cells were detected by probing with 4G2 mAb prepared in blocking buffer: DPBS containing 5% FBS for 30 min at 37°C, followed by AlexaFluor-conjugated goat anti-mouse IgG (H+L) (Invitrogen Molecular Probes, USA) prepared in blocking buffer for 30 min at 37°C. Cell nuclei counterstained with 5 µg/mL 4′,6-diamidino-2-phenylindole (DAPI, Sigma-Aldrich, USA). Two washing cycles of DPBS was done after each step of the IFA. After the final washing, digital images were acquired using a high-throughput confocal fluorescence imaging system (Evotec Technologies High-Throughput Cell Analyzer Opera, Perkin Elmer, USA). The digital images were taken from 3 different fields of each well at 20× magnification.
(§2) Acquired images were analyzed using our in-house developed image-mining platform (IM). This platform is designed to do high-content screening and directly access the database of images that were sequentially analyzed with specially designed algorithms developed as a customized plug-in to the IM platform. The results of all the analyses were stored in a centralized database. […] One channel (DAPI-channel) captures the signal emitted by DAPI-stained nuclei at 450 nm, while the other channel (A488-channel) captures the signal emitted by the AlexaFluor 488 dye bound to the dengue E protein-antibody complexes confined in the cytoplasm of dengue-infected cells at 540 nm. To define the percentage of dengue-infected cells and, conversely the non-infected cells, a modified watershed method was applied. Compared to the original watershed algorithm that uses the morphological gradient image, a weighted gradient image is used for the topographic surface, whose weights are defined as the ridge values computed from the eigen values of the original image. The percentage of non-infected cells, which is also defined as the percent inhibition or percent activity, is derived by using the formula: [1−(A488-positive cells/total cells)]×100%.
(§3) In both validation experiments, Huh-7.5 was mixed with DENV1, DENV2, DENV3 or DENV4 at a M.O.I. of 0.5 or VM only for MOCK-infection and dispensed in designated wells using the Thermo Scientific WellMate automated liquid dispenser. For the first validation experiment, the statistical reliability of the dengue HT/HCA was determined by calculating the Z'-factor for the percent infection or percent inhibition. Briefly, the Z'-factor of a defined parameter is calculated using the formula: 1−[(3σp+3σn)/(|μp−μn|)], where the μp, μn, σp and σn are the means (μ) and standard deviations (σ) of the positive (p) and negative (n) controls. For the second validation experiment, the reference compounds were prepared in 2-fold serial dilutions and dispensed in duplicate wells in the 384-well plate, followed by the Huh-7.5 and DENV mixture (M.O.I. 0.5). Percent infection, percent inhibition, and percent cell number were determined using the customized IM platform plug-in. Scatter-plot distribution was generated using TIBCO Spotfire 4.5.0 (TIBCO Software Inc., Somerville, MA). The ten-point dose-response curves (10-pt DRCs) were plotted using the non-linear regression formula: log (inhibitor) vs. response – variable slope (4 parameters), available in GraphPad Prism 5.04 (GraphPad Software Inc., San Diego, CA). The top and bottom values of the reference compounds were unconstrained when the curve fittings of the 10-pt. DRCs were generated.

Data set [2] deals with Huh-7.5. The experiment in a line: assay validation with reference compounds, percent cell number in DENV2-infected Huh-7.5. The following applies: percent cell number normalized against MOCK-infected Huh-7.5, DENV2-infected cells. As to the method:
(§4) Acquired images were analyzed using our in-house developed image-mining platform (IM). This platform is designed to do high-content screening and directly access the database of images that were sequentially analyzed with specially designed algorithms developed as a customized plug-in to the IM platform. The results of all the analyses were stored in a centralized database. […] To define the percentage of dengue-infected cells and, conversely the non-infected cells, a modified watershed method was applied. Compared to the original watershed algorithm that uses the morphological gradient image, a weighted gradient image is used for the topographic surface, whose weights are defined as the ridge values computed from the eigen values of the original image. The percentage of non-infected cells, which is also defined as the percent inhibition or percent activity, is derived by using the formula: [1−(A488-positive cells/total cells)]×100%.
as §3, with “The ten-point dose-response curves (10-pt DRCs) were plotted using the non-linear regression formula: log (inhibitor) vs. response – variable slope (4 parameters), available in GraphPad Prism 5.04 (GraphPad Software Inc., San Diego, CA).” left out
(§5) Similarly, the percent cell number was normalized based on the measured cell number in MOCK-infected (100% cell number) controls according to the formula: % cell number = (Cmeasured/μCMOCK-infect)×100%, where Cmeasured is the measured cell number in the test well and μCMOCK-infect is the average cell number in the MOCK-infected controls. The statistical validity of the dengue high-throughput screening was determined by calculating for the Z'-factor using the 0.5% DMSO-treatment and MOCK-infected Huh-7.5 as negative and positive controls, respectively. In addition, other parameters, including DRC of a reference compound, were used to evaluate the assay performance.

Data set [3] relates to DENV4 (DEN4 TVP-360) infection in Huh-7.5. As to the kind of experiment: image-based dengue HT/HCA, 10-pt dose-response hit confirmation, DENV4. Type of data set: cell-based. The following applies: Dengue virus, DENV4, Huh7.5; Huh-7.5, M.O.I. 0.5, 96 hrs; read-out: EC50 DENV4. As to the method: as §1, §2
(§6) The BioFocus kinase inhibitor library were screened against DENV1, DEN2, DENV3 and DENV4 at 10 µM in 0.5% (v/v) DMSO. MOCK-infected Huh-7.5 and IFN-α2A (500 U/mL) were used as positive controls, and the 0.5% DMSO vehicle was used as negative control. Four sets of 15 384-well plates (13 plates designated for test compounds and 2 plates designated for DMSO vehicle control) were used for the primary screening of the BioFocus kinase inhibitor library against each dengue serotype. Each of the 4,000 compounds in the library was tested in single wells. For data normalization and quality control of the screening, each test compound plate contained 16 replicates of the positive and negative controls. After dispensing the test compounds IFN-α2A and DMSO vehicle in the 384-well plates, Huh-7.5 was mixed with DENV1, DENV2, DENV3, or DENV4 to achieve a M.O.I. of 0.5 and dispensed at 5×10^3 cells/well using the Thermo Scientific WellMate automated liquid dispenser. For the MOCK-infected Huh-7.5, the cells were mixed with VM and dispensed under the same conditions as previously stated. Virus infection in the presence of the compounds proceeded at 37°C, 5% CO2 for 96 hrs. Compound activity based on percent inhibition and cell toxicity was assessed by IFA and IM analysis as described above. Scatter-plot distribution of the entire screening was generated using TIBCO Spotfire 4.5.0 (TIBCO Software Inc., Somerville, MA).
(§7) The calculated activity was normalized to a percent inhibition (PI) based on the MOCK-infected cells (100% activity, or zero infection) and dengue-infected cells (0% activity, or maximum measured infection percentage) controls according to the formula: [drawing 1] where: PImeasured - percent inhibition of test compound […]

Data set [4] relates to DENV2 (BR DEN2 01-01) infection in Huh-7.5. As to the kind of experiment: image-based dengue HT/HCA, 10-pt dose-response hit confirmation, DENV2. Type of data set: cell-based. As to conditions: Dengue virus, DENV2, Huh7.5; Huh-7.5, M.O.I. 0.5, 96 hrs; read-out: EC50 DENV2. As for the experimental part: as §1, §2, §6, §7
Data set [5] relates to DENV1 (Den1 BR/90) infection in Huh-7.5. As to the kind of experiment: image-based dengue HT/HCA, 10-pt dose-response hit confirmation, DENV1. Type of data set: cell-based. The following applies: Dengue virus, read-out: EC50 DENV1. As to the method: as §1, §2, §6, §7
Data set [6] in a line: compound toxicity, resazurin reduction assay in uninfected Huh-7.5. Type of data set: cell-based. The following applies: human, uninfected Huh-7.5 cells, Huh-7.5 without viral infection, 10-pt DRC. As to the method: The hits identified from the primary screening were also tested at 10 µM against CHIKV-118-GFP infection in HuH-7 cells and evaluated by resazurin reduction assay (RRA). Resazurin (7-Hydroxy-3H-phenoxazin-3-one 10-oxide) is reduced to the red fluorescent resorufin by redox enzymes produced by viable cells, and is a good indication of metabolic capacity, and by extension cell viability. The amount of converted resorufin was measured as relative fluorescence readout (RFU) at excitation/emission of 531/572 nm using a fluorescence spectrophotometer (Victor^3 V Spectrophotometer, Perkin Elmer, USA). Briefly, cells were inoculated with CHIKV-118-GFP at an M.O.I. of 0.5 and seeded in 384-well plates containing reference and primary hit compounds and incubated under humidified conditions for 72 hrs at 37°C. Resazurin solution was added to a final concentration of 10 µM and further incubated for another 12 hrs prior to measurement of RFU. The percent activity of the compounds, reflected by the percent cell viability, was quantified by normalizing against the RFUs of MOCK-infected cells and CHIKV-118-GFP-infected cells. Compounds resulting in normalized RFU ≥70% were considered as positive hits for anti-CHIKV activity.
To confirm the compound activity against dengue viruses, the selected hits from the primary screening were tested in a 10-pt. DRC (2-fold serial dilution from 50 µM) using the same assay described for the dengue HT/HCA. Each concentration of the hit compounds was tested in duplicate wells. Data generated from image analysis of the 10-pt. DRC was plotted and analyzed using the non-linear regression formula: log (inhibitor) vs. response – […] (4 parameters) in GraphPad Prism 5.04. […] Compound toxicity was determined by testing the hit compounds in a 10-pt. DRC against Huh-7.5 in the absence of viral infection and measuring the cell viability using resazurin reduction assay as described above. […] Confirmed hits were selected based on their Selectivity Index (SI), a dimensionless value that indicates the magnitude between cytotoxic concentration and effective concentration, and is calculated as: SI = CC50/EC50.

Data set [7] has as its system DENV3 (BR DEN3 290-02) infection in Huh-7.5. As to the kind of experiment: image-based dengue HT/HCA, 10-pt dose-response hit confirmation, DENV3. Type of data set: cell-based. The following applies: Dengue virus, DENV3, Huh7.5; Huh-7.5, M.O.I. 0.5, 96 hrs; read-out: EC50 DENV3. As for the experimental part: as §1, §2, §6, §7
The subject of data set [8] is DENV1, DENV2, DENV3 and DENV4 infection in Huh-7.5. The experiment in a line: image-based dengue HT/HCA, all four serotypes (primary screening and overall activity). Type of data set: cell-based, Dengue virus. As for the experimental part: as §1
Acquired images were analyzed using our in-house developed image-mining platform (IM). This platform is designed to do high-content screening and directly access the database of images that were sequentially analyzed with specially designed algorithms developed as a customized plug-in to the IM platform. The results of all the analyses were stored in a centralized database. […]
The BioFocus kinase inhibitor library were screened against DENV1, DEN2, DENV3 and DENV4 at 10 µM in 0.5% (v/v) DMSO. […] Compound activity based on percent inhibition and cell toxicity was assessed by IFA and IM analysis as described above. […]
as §7

The nature of data set [9]: in vitro. The following applies: human. As for the experimental part:
as §4
as §3, with “The ten-point dose-response curves (10-pt DRCs) were plotted using the non-linear regression formula: log (inhibitor) vs. response – variable slope (4 parameters), available in GraphPad Prism 5.04 (GraphPad Software Inc., San Diego, CA).” left out
as §5

pEC50, pIC50: −log10 of the molar value. Read-outs that look alike come from different tables or passages of the source. Where only a bound is given, the exact number is not on record here.

As for `CCN(CC)CC1CCN(c2ncc3ncnc(Nc4ccc(F)c(Cl)c4)c3n2)CC1` [BIBU 1361], the pIC50 in data set [1] was 5.36. Further, the CC50 in data set [2] is 4.5 µM.

Take `COc1ccc(CC(N)c2csc(Nc3ncccn3)n2)cc1` (centres unmarked) [CND1201]: the pEC50 in data set [3] is 5.30; in data set [4], 5.12; in data set [5] (DENV1, Huh7.5, Huh-7.5, M.O.I. 0.5, 96 hrs), 6.05; in [7], 5.59. In addition, the CC50 at 72 h in [6] was above 100 µM. Besides, in data set [8], the “antiviral activity against all four dengue serotypes” value was “strong antiviral activities against all four dengue serotypes”.

Regarding `Nc1ccc(CC(N)c2csc(Nc3ncccn3)n2)cc1` (centres unmarked) [CND1243], the pEC50 in [3] is 5.14; in [4] it was 5.21; in data set [5] (Huh7.5, 96 h), 5.39; in data set [7] it was 6.00. This molecule registered a CC50 at 72 h in data set [6] above 100 µM. In addition, the “antiviral activity against all four dengue serotypes” value in data set [8] is recorded as “strong antiviral activities against all four dengue serotypes”.

On to `CN1c2cc3c(cc2N=C(c2ccc(C(=O)O)cc2)c2ccccc21)C(C)(C)CCC3(C)C` [LE 135], for which, in data set [1], the pIC50 was 4.93. The same molecule showed a CC50 in data set [2] of 23.9 µM.

For the molecule `Cc1c(-c2ccc(O)cc2)nn(-c2ccc(O)cc2)c1-c1ccc(OCCN2CCCCC2)cc1` [MPP], the pIC50 in data set [1] is 5.16. Besides, in [2], the CC50 is 5.86 µM.

On to `NC(=O)c1ncn([C@@H]2O[C@H](CO)[C@@H](O)[C@H]2O)n1` [Ribavirin], for which the pIC50 in data set [1] (Dengue virus, Huh7.5) is 4.37. Also, the CC50 in data set [9] came out at 50.4 µM.
